# Results from patent US9850216B2 (H. LEE MOFFITT CANCER CENTER AND RESEARCH INSTITUTE, INC., priority 2013, dated 2017).
# “And” between values parts separate entries of the source, which are not always exact repeats. Identical values can stand only once. Counter-ions that a name gives are not always drawn. Like-named read-outs stand apart in the source and are kept apart here.
# Experiments:
# ACK1 [1] = target: T1, ACK1 (Homo sapiens, UniProt Q07912); assay: 32P Hotspot assay (Reaction Biology), ACK1 IC50; format: biochemical
# Method: 8 compounds were tested against […], ACK1, Src and ALK in various combinations. […] Reactions were carried out at 10 μM ATP.
# ACK1 [2] = target: T1, ACK1; assay: ACK1 ELISA: phosphorylation of AKT-derived peptide; format: biochemical; details: 10 μM
# [3] = 32P hotspot / enzymatic assay, read-out: ACK1 IC50
# [4] = Table 2, read-out: IC50 (32P Hotspot assay)
# [5] = Table 2, library 9, read-out: % Inhibition @ 10 μM (ELISA)
# [6] = Table 1, unit inferred, (RB) = Reaction Biology, replicates listed, read-out: IC50
# [7] = Table 1, replicate values listed
# [8] = Table 1, replicate values listed, read-out: % Inhibition at 10 μM (ELISA)
# [9] = Table 3, 10-dose, 3-fold dilution from 10 μM, 10 μM ATP, read-out: Compound IC50* (M): ACK1
# [10] = Table 1, replicate values listed, hydrochloride
# T1 sequence (Q07912 whole entry): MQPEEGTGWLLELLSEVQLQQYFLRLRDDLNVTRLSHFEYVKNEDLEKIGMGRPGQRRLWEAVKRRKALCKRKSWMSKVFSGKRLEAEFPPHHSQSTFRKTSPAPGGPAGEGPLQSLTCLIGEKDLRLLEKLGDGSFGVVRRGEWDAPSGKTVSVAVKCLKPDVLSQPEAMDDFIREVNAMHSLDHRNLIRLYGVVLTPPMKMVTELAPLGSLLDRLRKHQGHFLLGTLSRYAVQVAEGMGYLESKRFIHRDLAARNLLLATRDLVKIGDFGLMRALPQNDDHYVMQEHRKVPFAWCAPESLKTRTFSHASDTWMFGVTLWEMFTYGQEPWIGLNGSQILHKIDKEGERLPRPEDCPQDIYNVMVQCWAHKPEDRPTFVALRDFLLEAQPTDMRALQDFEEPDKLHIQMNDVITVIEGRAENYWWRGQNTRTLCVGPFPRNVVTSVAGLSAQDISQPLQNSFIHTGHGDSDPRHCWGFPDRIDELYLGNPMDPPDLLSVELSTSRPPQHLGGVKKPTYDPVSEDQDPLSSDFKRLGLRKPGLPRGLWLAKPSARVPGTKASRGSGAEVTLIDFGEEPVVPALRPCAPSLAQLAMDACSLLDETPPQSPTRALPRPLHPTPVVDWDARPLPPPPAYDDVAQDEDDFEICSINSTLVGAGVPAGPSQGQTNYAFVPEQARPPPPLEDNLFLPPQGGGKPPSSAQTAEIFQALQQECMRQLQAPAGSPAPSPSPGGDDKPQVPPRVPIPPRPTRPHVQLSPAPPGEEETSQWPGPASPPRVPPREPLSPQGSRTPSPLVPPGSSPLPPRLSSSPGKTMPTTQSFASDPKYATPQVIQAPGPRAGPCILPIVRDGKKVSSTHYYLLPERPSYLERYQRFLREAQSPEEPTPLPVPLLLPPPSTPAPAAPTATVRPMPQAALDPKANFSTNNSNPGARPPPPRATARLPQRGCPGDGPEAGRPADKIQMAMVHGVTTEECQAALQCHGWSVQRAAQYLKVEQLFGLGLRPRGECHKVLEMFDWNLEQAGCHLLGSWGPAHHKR
inhibition at 10 µM (ACK1 [2]; [8]) [%],melting point,% Inhibition at 10 μM (ELISA) (ACK1 [2]; [10]),Compound,further results
96,,,"O=C(O)C1CCN(c2ccc(Nc3ncc(Cl)c(NC[C@H]4CCCO4)n3)cc2)CC1 [DZ1-072, (R)-1-(4-(5-chloro-4-((tetrahydrofuran-2-yl)methylamino)pyrimidin-2-ylamino)phenyl)piperidine-4-carboxylic acid]",IC50 (ACK1 [1]; [6]): 9.16e-08 M; % Inhibition at 10 μM (ELISA) (ACK1 [2]; [7]): 95%
92,,,"O=C(O)C1CCN(c2ccc(Nc3ncc(Cl)c(NC[C@@H]4CCCO4)n3)cc2)CC1 [DZ1-082, (S)-1-(4-(5-chloro-4-((tetrahydrofuran-2-yl)methylamino)pyrimidin-2-ylamino)phenyl)piperidine-4-carboxylic acid]",IC50 (ACK1 [1]; [6]): 5.47e-08 M; % Inhibition at 10 μM (ELISA) (ACK1 [2]; [7]): 94%
98,,,Cl.O=C(Nc1c(F)cccc1Cl)c1cnc(Nc2ccc(N3CCC(C(=O)O)CC3)cc2)nc1NCC1CCCO1 (stereo not shown) [DZ1-096],"IC50 (ACK1 [1]; [6]): 3.63e-08 M and 3.22e-08 M; IC50 (ACK1 [1]; Table 4, 10-dose, 10 μM ATP, read-out: Compound IC50 (M), ACK1): 3.22e-08 M; % Inhibition at 10 μM (ELISA) (ACK1 [2]; [7]): 98, 98%"
99,,,"CN1CCN(c2ccc(Nc3ncc(C(=O)Nc4c(F)cccc4Cl)c(NCC4CCCO4)n3)cc2)CC1 (stereo not shown) [DZ1-114, N-(2-chloro-6-fluorophenyl)-2-(4-(4-methylpiperazin-1-yl)phenylamino)-4-((tetrahydrofuran-2-yl)methylamino)pyrimidine-5-carboxamide]",IC50 (ACK1 [1]; [9]): 4.83e-08 M; % Inhibition at 10 μM (ELISA) (ACK1 [2]; [7]): 95%
8,192 °C (dec.),,CC(C)S(=O)(=O)c1ccccc1Nc1nc(Nc2ccc(S(N)(=O)=O)cc2)ncc1C(=O)Nc1c(F)cccc1Cl [YL7-100-1],% Inhibition at 10 μM (ELISA) (ACK1 [2]; [7]): 6%
0,142 °C (dec.),,"O=C(Nc1c(F)cccc1Cl)c1cnc(Cl)nc1NCC1CCCO1 (stereo not shown) [YL7-102, 2-Chloro-N-(2-chloro-6-fluorophenyl)-4-((tetrahydrofuran-2-yl)methylamino)pyrimidine-5-carboxamide]",
,227 °C (dec.),,"COc1ccc(CNc2ncc(C(=O)Nc3c(F)cccc3Cl)c(Nc3ccccc3S(=O)(=O)C(C)C)n2)cc1 [YL7-106-1, N-(2-chloro-6-fluorophenyl)-4-(2-(isopropylsulfonyl)phenylamino)-2-(4-methoxybenzylamino)pyrimidine-5-carboxamide]",% Inhibition at 10 μM (ELISA) (ACK1 [2]; [7]): 14% and 0%
51,230 °C (dec.),,"CC(C)S(=O)(=O)c1ccccc1Nc1nc(Nc2ccc(C(N)=O)cc2)ncc1C(=O)Nc1c(F)cccc1Cl [YL7-106-3, 2-(4-Carbamoylphenylamino)-N-(2-chloro-6-fluorophenyl)-4-(2-(isopropylsulfonyl)phenylamino)pyrimidine-5-carboxamide]",% Inhibition at 10 μM (ELISA) (ACK1 [2]; [7]): 43%
,251 °C (dec.),31% and 77% and 82%,"Cl.NC(=O)c1ccc(Nc2ncc(Br)c(NCC3CCCO3)n2)cc1 (stereo not shown) [YL7-172-5, 4-(5-Bromo-4-((tetrahydrofuran-2-yl)methylamino)pyrimidin-2-ylamino)benzamide hydrochloride]",
56,214 °C (dec.),68% and 63%,"Cl.NS(=O)(=O)c1ccc(Nc2ncc(Br)c(NCC3CCCO3)n2)cc1 (stereo not shown) [YL8-003-3, 4-(5-Bromo-4-((tetrahydrofuran-2-yl)methylamino)pyrimidin-2-ylamino)benzenesulfonamide hydrochloride]",
41,158 °C (dec.),42% and 48%,"Cl.O=C(Nc1c(F)cccc1Cl)c1cnc(Nc2ccc(O)c(Cl)c2)nc1NCC1CCCO1 (stereo not shown) [YL8-009-1, 2-(3-Chloro-4-hydroxyphenylamino)-N-(2-chloro-6-fluorophenyl)-4-((tetrahydrofuran-2-yl)methylamino)pyrimidine-5-carboxamide hydrochloride]",
44,298 °C (dec.),40% and 55%,"Cl.O=C(O)c1cc(Nc2ncc(C(=O)Nc3c(F)cccc3Cl)c(NCC3CCCO3)n2)ccc1O (stereo not shown) [YL8-009-2, 5-(5-(2-Chloro-6-fluorophenylcarbamoyl)-4-((tetrahydrofuran-2-yl)methylamino)pyrimidin-2-ylamino)-2-hydroxybenzoic acid hydrochloride]",
28,184 to 186 °C,31%,"CC(C)(C)OC(=O)N1CCN(c2ccc(Nc3ncc(C(=O)Nc4c(F)cccc4Cl)c(NCC4CCCO4)n3)cc2)CC1.Cl (stereo not shown) [YL9-161, tert-Butyl4-(4-(5-(2-chloro-6-fluorophenylcarbamoyl)-4-((tetrahydrofuran-2-yl)methylamino)pyrimidin-2-ylamino)phenyl)piperazine-1-carboxylate hydrochloride]",

# The remaining lines, values behind:
Compound,inhibition at 10 µM (ACK1 [2]; [8]) [%],melting point,% Inhibition at 10 μM (ELISA) (ACK1 [2]; [10]),further results
Clc1cnc(Nc2ccc(N3CCNCC3)cc2)nc1NCC1CCCO1 (stereo not shown) [Compound 9a],,,,"IC50 (ACK1 [1]; [3]): 8.1e-08 M; % Inhibition @ 10 μM (ELISA) (ACK1 [2]; Table 2, library 9): 82 ± 12.7%"
Clc1cnc(Nc2ccc(N3CCOCC3)cc2)nc1NCC1CCCO1 (stereo not shown) [Compound 9c],,,,IC50 (ACK1 [1]; [4]): 6.75e-08 M
O=C(O)C1CCN(c2ccc(Nc3ncc(Cl)c(NCC4CCCO4)n3)cc2)CC1 (stereo not shown) [Compound 9e],,,,IC50 (ACK1 [1]; [3]): 8.5e-08 M; inhibition at 10 µM (ACK1 [2]; [5]): 93 ± 5.1%
Clc1cnc(Nc2ccc(C3CCNCC3)cc2)nc1NCC1CCCO1 (stereo not shown) [Compound 9f],,,,IC50 (ACK1 [1]; [3]): 2.31e-07 M; inhibition at 10 µM (ACK1 [2]; [5]): 79.5 ± 0.7%
Brc1cnc(Nc2ccc(C3CCNCC3)cc2)nc1NCC1CCCO1 (stereo not shown) [Compound 9k],,,,IC50 (ACK1 [1]; [4]): 1.69e-07 M; inhibition at 10 µM (ACK1 [2]; [5]): 84.5 ± 0.7%
O=C(Nc1c(F)cccc1Cl)c1cnc(Nc2ccc(N3CCC(C(=O)O)CC3)cc2)nc1NCC1CCCO1 (stereo not shown) [Compound 9s],,,,IC50 (ACK1 [1]; [3]): 3.4e-08 M and 3.2e-08 M; IC50 (ACK1 [1]; [4]): 3.42e-08 M; inhibition at 10 µM (ACK1 [2]; [5]): 98%
Clc1cnc(Nc2ccc(N3CCOCC3)cc2)nc1NC[C@H]1CCCO1 [DZ1-064],,,,IC50 (ACK1 [1]; [6]): 4.65e-08 M
Clc1cnc(Nc2ccc(N3CCOCC3)cc2)nc1NC[C@@H]1CCCO1 [DZ1-074],,,,IC50 (ACK1 [1]; [6]): 7.41e-08 M
"Cl.O=C(Nc1c(F)cccc1Cl)c1cnc(Nc2ccc(C3CCNCC3)cc2)nc1NCC1CCCO1 (stereo not shown) [DZ1-089, N-(2-chloro-6-fluorophenyl)-2-(4-(piperidin-4-yl)phenylamino)-4-((tetrahydrofuran-2-yl)methylamino)pyrimidine-5-carboxamide]",,,,"IC50 (ACK1 [1]; [6]): 5.33e-08 M; % Inhibition at 10 μM (ELISA) (ACK1 [2]; [7]): 97, 97%"
"Brc1cnc(Nc2ccc(N3CCOCC3)cc2)nc1NCC1CCCO1.Cl (stereo not shown) [DZ1-091, 5-bromo-N2-(4-morpholinophenyl)-N4-((tetrahydrofuran-2-yl)methyl)pyrimidine-2,4-diamine]",88,,,IC50 (ACK1 [1]; [6]): 1.06e-07 M; % Inhibition at 10 μM (ELISA) (ACK1 [2]; [7]): 90%
"Cc1cc(Nc2ncc(Cl)c(Nc3ccccc3S(=O)(=O)C(C)C)n2)c(OC(C)C)cc1C1CCNCC1 [LDK, reference compound]",,,,IC50 (ACK1 [1]; [6]): 8.87e-08 M
"Cl.Oc1ccc(Nc2ncc(Br)c(NCC3CCCO3)n2)cc1Cl (stereo not shown) [YL7-172-1, 4-(5-Bromo-4-((tetrahydrofuran-2-yl)methylamino)pyrimidin-2-ylamino)-2-chlorophenol hydrochloride]",,193 °C (dec.),75% and 55% and 35%,
"Cl.Fc1cccc(Nc2ncc(Br)c(NCC3CCCO3)n2)c1 (stereo not shown) [YL7-172-3, 5-Bromo-N2-(3-fluorophenyl)-N4-((tetrahydrofuran-2-yl)methyl)pyrimidine-2,4-diamine hydrochloride]",,194 to 197 °C,69% and 21% and 25%,
"Cc1ccc(Nc2ncc(Br)c(NCC3CCCO3)n2)cc1F.Cl (stereo not shown) [YL7-172-4, 5-Bromo-N2-(3-fluoro-4-methylphenyl)-N4-((tetrahydrofuran-2-yl)methyl)pyrimidine-2,4-diamine hydrochloride]",,189 °C (dec.),0% and −12% and 20%,
"Cl.Fc1cc(Nc2ncc(Br)c(NCC3CCCO3)n2)ccc1Cl (stereo not shown) [YL7-172-7, 5-Bromo-N2-(4-chloro-3-fluorophenyl)-N4-((tetrahydrofuran-2-yl)methyl)pyrimidine-2,4-diamine hydrochloride]",,172 °C (dec.),0% and 5% and 3%,
"COc1ccc(Nc2ncc(Br)c(NCC3CCCO3)n2)cc1F.Cl (stereo not shown) [YL7-172-8, 5-Bromo-N2-(3-fluoro-4-methoxyphenyl)-N4-((tetrahydrofuran-2-yl)methyl)pyrimidine-2,4-diamine hydrochloride]",,169 °C (dec.),14% and 35% and 41%,
"Cl.Oc1ccc(Nc2nc(NCC3CCCO3)c3ccccc3n2)cc1F (stereo not shown) [YL8-001, 2-Fluoro-4-(4-((tetrahydrofuran-2-yl)methylamino)quinazolin-2-ylamino)phenol hydrochloride]",,144 °C (dec.),4% and 10% and −6%,
"Cl.O=C(O)c1cc(Nc2ncc(Br)c(NCC3CCCO3)n2)ccc1O (stereo not shown) [YL8-003-1, 5-(5-Bromo-4-((tetrahydrofuran-2-yl)methylamino)pyrimidin-2-ylamino)-2-hydroxybenzoic acid hydrochloride]",27,211 °C (dec.),28% and 16%,
"CC(C)(C)OC(=O)N1CCN(c2ccc(Nc3ncc(Br)c(NCC4CCCO4)n3)cc2)CC1.Cl (stereo not shown) [YL9-157, tert-Butyl4-(4-(5-bromo-4-((tetrahydrofuran-2-yl)methylamino)pyrimidin-2-ylamino)phenyl)piperazine-1-carboxylate hydrochloride]",47,124 °C (dec.),46%,
"Brc1cnc(Nc2ccc(N3CCNCC3)cc2)nc1NCC1CCCO1 (stereo not shown) [YL9-167, 5-Bromo-N2-(4-(piperazin-1-yl)phenyl)-N4-((tetrahydrofuran-2-yl)methyl)pyrimidine-2,4-diamine TFA salt]",,,,IC50 (ACK1 [1]; [9]): 9.47e-08 M
